Test results as given in US5004565A, “Method and compositions providing enhanced chemiluminescence from 1,2-dioxetanes” (priority 1988, dated 1991).
Counter-ions that a name gives are not always drawn.

What was measured:
[1] = type: physicochemical; details: for t1/2 at 25° C.: table; for t1/2 at 25° C. / k at 25° C.: thermal decomposition in xylene
Experimental: Rates for thermal decomposition of the stable dioxetanes were monitored by the decay of chemiluminescence of aerated solutions. A cylindrical Pyrex vial equipped with magnetic stir bar was filled with 3-4 mL of the reaction solvent, sealed with a Teflon-lined screw cap and placed in the thermostatted sample block of the chemiluminescence-measuring luminometer. Temperature control was provided by an external circulating water bath. Appropriate values for the instrument gain and optical slit size were selected. […]. The vial was sealed with a Teflon-lined screw cap to prevent evaporation when high temperatures were used. Measurement of the signal was begun by opening the shutter. The chemiluminescent decay was generally recorded for at least three half-lives. Calculation of the first-order rate constant (k) from the In (Intensity) vs. time data was performed by a computer program utilizing a standard least-squares treatment. The correlation coefficient (r) was typically at least 0.999 and k varied less than 5% between replicate samples.
Activation parameters for decomposition of the dioxetanes were calculated from plots of In k vs. 1/T (Arrhenius eq.) or In k/t vs. 1/T (Eyring eq.) by a standard least-squares linear regression analysis.

[2] = tested on: alkaline phosphatase from bovine intestinal mucosa; assay: Triggering of xanthenone phosphate dioxetane with alkaline phosphatase from bovine intestinal mucosa; type: biochemical; details: 4.2×10^-6 M dioxetane, 1.8 μg/mL protein, pH 10.3, 37° C.
Experimental: Triggering experiments were conducted using alkaline phosphatase from bovine intestinal mucosa [suspension of 5.3 mg of protein (1100 units/mg protein) per mL in 3.2 M (NH4)2 SO4 ] and the phosphate-protected dioxetane at pH 10.3 in 0.75 M 2-amino-2-methyl- 1-propanol buffer. […]. The rate of decay of the emission is a function of enzyme concentration while the total light emission is independent of the enzyme concentration because of turnover of the enzyme.

[3] = Base-triggered chemiluminescence in DMSO or water; details: 10^-4 M, DMSO, excess tetra-n-butylammonium hydroxide
urease = assay: Triggering of 2a with urease in the presence of fluorescent micelles; type: biochemical; details: 10 μL of 3×10^-3 M 2a, CTAB, fluorescein surfactant 3, urea
Experimental: 5. Enzymatic Triggering of Hydroxy-Substituted Dioxetane 2a with Urease in the Presence of Fluorescent Micelles. A solution was prepared using 160 mg of CTAB and 12.4 mg of fluorescein surfactant 3 in 200 mL of distilled water. A urea solution was made by dissolving 200 mg of urea in 100 mL of distilled water with EDTA added to give a final concentration of 0.4 mM. The substrate solution for the urease experiments was obtained by mixing 10mL of each stock solution.
Experiments were carried out with urease (Sigma) by incubation at room temperature for periods of 0.5 to 2 hours. […] The intensity of the luminescence provided a measure of the concentration of urease.

[4] = tested on: alkaline phosphatase from bovine intestinal mucosa; assay: Triggering of 2c with alkaline phosphatase from bovine intestinal mucosa; type: biochemical
Description: The chemiluminescence quantum yield (.PHI.CL) for the decomposition of dioxetanes is defined as the ratio of einsteins of chemiluminescence emitted to moles of dioxetane decomposed. Sufficient energy is released during the reaction from the reaction enthalpy (ΔHR) plus the Arrhenius activation energy (Ea) to populate the singlet excited state of one of the carbonyl cleavage products. Therefore, the maximum quantum yield is 1.0. Another parameter of interest is the chemiexcitation quantum yield (.PHI.CE) which is defined as the ratio of excited states formed to dioxetane decomposed.
The same procedure as those employed in the measurement of the decay kinetics was used for the determination of chemiluminescence quantum yields with the following modifications. An accurately measured aliquot of a dioxetane stock solution of known concentration was added to 3 mL of the pre-thermostatted organic solvent or aqueous buffer. The reaction was then triggered by adding the appropriate chemical reagent or enzyme. […]
Enzymatic triggering experiments such as those described above were also carried out in Immumlon™ microtitre wells from Dynatech, Inc. made of transparent polystyrene. […] The chemiluminescence was detected at the bottom of the well using a fiber optic connected to the photon-counting luminometer described previously. […]

[5] = tested on: Alkaline Phosphatase from Human Blood Serum; assay: Triggering of 2c with alkaline phosphatase from human blood serum; type: biochemical; details: 10^-5 M 2c, 100 μL serum, pH 10.3, 37° C.
Experimental: 1. Triggering the Chemiluminescence of 2c with Alkaline Phosphatase from Human Blood Serum. A stock solution of dioxetane 2c was prepared in dioxane/water (1:1 v/v) by photooxygenation of 1c. A sample of fresh blood was drawn from a healthy donor and the red blood cells removed by centrifugation to provide serum for the experiments. Treatment of 3 mL of a 10^-5 M solution of 2c in 0.75 M 2-amino-2-methyl-1-propanol (221) buffer (pH 10.3) at 37° C. with 100 μL of serum led to the typical intensity vs. time profile shown in FIG. 3 where the serum is injected at time zero. Under these conditions the light intensity reaches a constant level of approximately 2.3×10^4 counts/sec. The background luminescence signal from non-enzymatic hydrolysis of 2c is less than 0.05% of the enzyme-generated value.

firefly luciferase = firefly luciferase system; cited from earlier work

## COC1(c2cccc(O[Si](C)(C)C(C)(C)C)c2)OOC12C1CC3CC(C1)CC2C3 (stereo not drawn)
[1]; General Description dioxetanes
  half-life at 25° C.: 3.8 years
[1]; o-xylene, laboratory bench, several months
  decomposition on standing: no detectable decomposition

## O=P(O)(O)Oc1ccc2c(c1)Oc1ccccc1C21OOC12C1CC3CC(C1)CC2C3 (stereo not drawn)
[2]
  duration of chemiluminescence decay: 3 min

## COC1(c2cccc(O)c2)OOC12C1CC3CC(C1)CC2C3 (stereo not drawn) [dioxetane 2a, 4-(3-Hydroxyphenyl)-4-methoxyspiro[1,2-dioxetane-3,2'-adamantane]]
[3]
  duration of chemiluminescence decay: several minutes
[1]
  t1/2 at 25° C.: 4.1 yrs
  k at 25° C.: 5.38e-09 s⁻¹
urease
  chemiluminescence after incubation with urease: produced chemiluminescence

## COC1(c2cccc(OP(=O)(O)O)c2)OOC12C1CC3CC(C1)CC2C3 (stereo not drawn) [dioxetane 2c, 4-Methoxy-4-(3-phosphatephenyl)spiro[1,2-dioxetane-3,2'-adamantane], disodium salt]
[4]; 2c, CTAB and 3 in 200 μL 221 buffer, assuming enzyme purity of 10%
  detection of alkaline phosphatase: less than 0.2 attomoles
[4]; with CTAB and 3, 12 pg/mL protein
  period of chemiluminescence: 45 min
[1]
  t1/2 at 25° C.: 19 yrs
  k at 25° C.: 1.19e-09 s⁻¹
[5]
  light intensity at plateau: approximately 2.3×10^4 counts/sec

## CCCCCCCCCCCCCCCC[N+](C)(C)C.[Br-] [CTAB, cetyltrimethylammonium bromide]
Firefly luciferase
  inhibition of the catalytic activity of the luciferase: complete inhibition

## COC1(c2cccc(OC(C)=O)c2)OOC12C1CC3CC(C1)CC2C3 (stereo not drawn) [dioxetane 2b]
[1]
  t1/2 at 25° C.: 13 yrs
  k at 25° C.: 1.73e-09 s⁻¹
